Where two headings read alike, the source gives them in different places.
Assay: RSV human challenge study: plasma pharmacokinetics
Assay type: in vivo
Conditions: for half-life / Tmax / concentration at 12 h / Cmax / AUC(0-t): human; for concentration at 12 h: 12 hours post-dose, read-out: Mean Cmin (SD); for Cmax: read-out: Mean Cmax (SD); for AUC(0-t): read-out: Geometric mean (CV) AUC0–12h
Protocol: Twice-daily collection of nasal wash samples allowed measurement of viral load via RT-qPCR and quantitative culture. […] Subjects reported the occurrence and severity of symptoms three times daily using a 10-item subject symptom diary card as previously reported ([12]) (see Supplemental Methods). Throughout the quarantine period, used tissues were collected and weighed daily, and total nasal mucus weight was recorded. PK assessments were based on venous blood samples. Safety assessments included measurement of vital signs, standard 12-lead ECG recordings, spirometry, a complete physical examination, and a respiratory-directed physical examination. AEs were monitored daily, coded according to the Medical Dictionary for Regulatory Activities Version 20.0, and graded according to the National Cancer Institute Common Terminology Criteria for Adverse Events Version 4.0 (see Supplemental Methods for further details).
The safety analysis set comprised all subjects who received challenge virus; the PK analysis set comprised all subjects who received the challenge virus and provided at least one postdose PK result.
PK parameters were derived by noncompartmental analysis using Phoenix WinNonlin version 6.4.1. Statistical analyses were performed using SAS software version 9.4 or later. […]
Outcomes. Safety outcomes included the occurrence of AEs. PK outcomes included the maximum plasma concentration, the minimum plasma concentration, the time to maximum plasma concentration, and the area under the plasma concentration-time curve with a dosing interval, calculated by the linear trapezoidal rule.

With NCc1ccc2c(c1)nc(CN1C(=O)C3(CC3)c3ccc(F)cc31)n2CCCC(F)(F)F [RV521] as the molecule, how does the “Time to steady-state plasma levels after the first dose” value (200 mg and 350 mg) read?
Its value is at most 24 h.

And the “Subjects achieving target trough levels (3× protein-adjusted in vitro EC90)” value (200 mg, after the first dose)?
Its value is 50%.

What about the “Subjects achieving target trough levels (3× protein-adjusted in vitro EC90)” value (200 mg, after the second dose) of the same molecule?
The value was 73%.

What about the “Subjects with trough levels in excess of the target (3× protein-adjusted in vitro EC90)” value (350 mg, after the first dose) of the same molecule?
The value was “all subjects”.

And the “Increase of systemic exposure with dose” value (dose 1 and dose 10, 200 mg vs 350 mg)?
Its value is “greater than dose-proportional”.

What about the half-life (in vivo, 200 mg and 350 mg, read-out: Elimination half-life (converted)) of the same molecule?
The half-life was about 6 h.

What about the Tmax (plasma, oral, 200 mg and 350 mg, postdose, read-out: Median time to maximum plasma concentration) of the same molecule?
Its Tmax is 5 to 6 h.

And the concentration at 12 h (plasma, oral, 200 mg, dose 1)?
The concentration at 12 h was 22.6 ng/mL.

What about the Cmax (plasma, oral, 200 mg, dose 1, plasma) of the same molecule?
Its Cmax is 55.3 ng/mL.

What about the AUC(0-t) (plasma, oral, 200 mg, dose 1) of the same molecule?
Its AUC(0-t) is 255 ng·h/mL.

What about the Tmax (plasma, oral, 200 mg, dose 1, read-out: Median Tmax) of the same molecule?
Its Tmax is 5.04 h.

What about the Cmax (plasma, oral, 200 mg, dose 10 (twice daily), plasma) of the same molecule?
The Cmax was 94.9 ng/mL.

And the concentration at 12 h (plasma, oral, 200 mg, dose 10)?
The concentration at 12 h was 39.4 ng/mL.

What about the AUC(0-t) (plasma, oral, 200 mg, dose 10) of the same molecule?
Its AUC(0-t) is 642 ng·h/mL.

And the Tmax (plasma, oral, 200 mg, dose 10, read-out: Median Tmax)?
The Tmax was 5.06 h.

What about the concentration at 12 h (plasma, oral, 350 mg, dose 1) of the same molecule?
The concentration at 12 h was 80 ng/mL.

What about the Cmax (plasma, oral, 350 mg, dose 1, plasma) of the same molecule?
The Cmax was 169 ng/mL.

And the AUC(0-t) (plasma, oral, 350 mg, dose 1)?
The AUC(0-t) was 953 ng·h/mL.

And the Tmax (plasma, oral, 350 mg, dose 1, read-out: Median Tmax)?
The Tmax was 6 h.

What about the Cmax (plasma, oral, 350 mg, dose 10 (twice daily), plasma) of the same molecule?
Its Cmax is 294 ng/mL.

And the concentration at 12 h (plasma, oral, 350 mg, dose 10)?
Its concentration at 12 h is 151 ng/mL.

And the AUC(0-t) (plasma, oral, 350 mg, dose 10)?
Its AUC(0-t) is 1900 ng·h/mL.

What about the Tmax (plasma, oral, 350 mg, dose 10, read-out: Median Tmax) of the same molecule?
The Tmax was 5.05 h.

What about the half-life (plasma, oral, 200 mg and 350 mg, read-out: Terminal half-life) of the same molecule?
Its half-life is 8.54 to 9.35 h.

Source: PMC6985722 (Antimicrobial Agents and Chemotherapy, 2020)
